{"source": "paper PMC6704710", "about": "“Preclinical evaluation of 3D185, a novel potent inhibitor of FGFR1/2/3 and CSF-1R, in FGFR-dependent and macrophage-dominant cancer models” (Journal of Experimental & Clinical Cancer Research : CR, 2019)", "test_in_all_cases": "Eurofins kinase panel", "type_in_all_cases": "biochemical", "details_in_all_cases": "read-out: Inhibition rate (%)", "key": {"Cdc7/cyclinB1(h)": {"molecular_target": "T1, Cdc7/cyclinB1(h) (Homo sapiens, UniProt O00311)", "T1 construct": "purchased Eurofins (KinaseProfiler)", "T1 sequence (O00311 whole entry)": "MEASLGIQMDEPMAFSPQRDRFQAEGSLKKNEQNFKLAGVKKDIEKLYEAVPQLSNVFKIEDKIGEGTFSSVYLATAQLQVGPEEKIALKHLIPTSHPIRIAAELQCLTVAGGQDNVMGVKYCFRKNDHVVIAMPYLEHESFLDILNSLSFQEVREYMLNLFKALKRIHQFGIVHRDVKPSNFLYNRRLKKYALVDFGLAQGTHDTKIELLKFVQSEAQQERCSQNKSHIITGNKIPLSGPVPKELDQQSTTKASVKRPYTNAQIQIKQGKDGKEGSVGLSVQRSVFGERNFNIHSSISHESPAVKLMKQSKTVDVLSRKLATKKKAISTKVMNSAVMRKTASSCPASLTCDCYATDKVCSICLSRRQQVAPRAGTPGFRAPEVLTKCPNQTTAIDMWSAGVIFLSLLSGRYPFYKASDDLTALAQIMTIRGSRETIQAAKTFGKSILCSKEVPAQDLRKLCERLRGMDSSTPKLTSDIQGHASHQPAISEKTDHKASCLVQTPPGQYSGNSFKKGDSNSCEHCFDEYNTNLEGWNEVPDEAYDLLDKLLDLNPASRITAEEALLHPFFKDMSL"}, "WNK1(h)": {"molecular_target": "T2, WNK1(h) (Homo sapiens, UniProt Q9H4A3)", "T2 construct": "purchased Eurofins (KinaseProfiler)", "T2 sequence (Q9H4A3 whole entry)": "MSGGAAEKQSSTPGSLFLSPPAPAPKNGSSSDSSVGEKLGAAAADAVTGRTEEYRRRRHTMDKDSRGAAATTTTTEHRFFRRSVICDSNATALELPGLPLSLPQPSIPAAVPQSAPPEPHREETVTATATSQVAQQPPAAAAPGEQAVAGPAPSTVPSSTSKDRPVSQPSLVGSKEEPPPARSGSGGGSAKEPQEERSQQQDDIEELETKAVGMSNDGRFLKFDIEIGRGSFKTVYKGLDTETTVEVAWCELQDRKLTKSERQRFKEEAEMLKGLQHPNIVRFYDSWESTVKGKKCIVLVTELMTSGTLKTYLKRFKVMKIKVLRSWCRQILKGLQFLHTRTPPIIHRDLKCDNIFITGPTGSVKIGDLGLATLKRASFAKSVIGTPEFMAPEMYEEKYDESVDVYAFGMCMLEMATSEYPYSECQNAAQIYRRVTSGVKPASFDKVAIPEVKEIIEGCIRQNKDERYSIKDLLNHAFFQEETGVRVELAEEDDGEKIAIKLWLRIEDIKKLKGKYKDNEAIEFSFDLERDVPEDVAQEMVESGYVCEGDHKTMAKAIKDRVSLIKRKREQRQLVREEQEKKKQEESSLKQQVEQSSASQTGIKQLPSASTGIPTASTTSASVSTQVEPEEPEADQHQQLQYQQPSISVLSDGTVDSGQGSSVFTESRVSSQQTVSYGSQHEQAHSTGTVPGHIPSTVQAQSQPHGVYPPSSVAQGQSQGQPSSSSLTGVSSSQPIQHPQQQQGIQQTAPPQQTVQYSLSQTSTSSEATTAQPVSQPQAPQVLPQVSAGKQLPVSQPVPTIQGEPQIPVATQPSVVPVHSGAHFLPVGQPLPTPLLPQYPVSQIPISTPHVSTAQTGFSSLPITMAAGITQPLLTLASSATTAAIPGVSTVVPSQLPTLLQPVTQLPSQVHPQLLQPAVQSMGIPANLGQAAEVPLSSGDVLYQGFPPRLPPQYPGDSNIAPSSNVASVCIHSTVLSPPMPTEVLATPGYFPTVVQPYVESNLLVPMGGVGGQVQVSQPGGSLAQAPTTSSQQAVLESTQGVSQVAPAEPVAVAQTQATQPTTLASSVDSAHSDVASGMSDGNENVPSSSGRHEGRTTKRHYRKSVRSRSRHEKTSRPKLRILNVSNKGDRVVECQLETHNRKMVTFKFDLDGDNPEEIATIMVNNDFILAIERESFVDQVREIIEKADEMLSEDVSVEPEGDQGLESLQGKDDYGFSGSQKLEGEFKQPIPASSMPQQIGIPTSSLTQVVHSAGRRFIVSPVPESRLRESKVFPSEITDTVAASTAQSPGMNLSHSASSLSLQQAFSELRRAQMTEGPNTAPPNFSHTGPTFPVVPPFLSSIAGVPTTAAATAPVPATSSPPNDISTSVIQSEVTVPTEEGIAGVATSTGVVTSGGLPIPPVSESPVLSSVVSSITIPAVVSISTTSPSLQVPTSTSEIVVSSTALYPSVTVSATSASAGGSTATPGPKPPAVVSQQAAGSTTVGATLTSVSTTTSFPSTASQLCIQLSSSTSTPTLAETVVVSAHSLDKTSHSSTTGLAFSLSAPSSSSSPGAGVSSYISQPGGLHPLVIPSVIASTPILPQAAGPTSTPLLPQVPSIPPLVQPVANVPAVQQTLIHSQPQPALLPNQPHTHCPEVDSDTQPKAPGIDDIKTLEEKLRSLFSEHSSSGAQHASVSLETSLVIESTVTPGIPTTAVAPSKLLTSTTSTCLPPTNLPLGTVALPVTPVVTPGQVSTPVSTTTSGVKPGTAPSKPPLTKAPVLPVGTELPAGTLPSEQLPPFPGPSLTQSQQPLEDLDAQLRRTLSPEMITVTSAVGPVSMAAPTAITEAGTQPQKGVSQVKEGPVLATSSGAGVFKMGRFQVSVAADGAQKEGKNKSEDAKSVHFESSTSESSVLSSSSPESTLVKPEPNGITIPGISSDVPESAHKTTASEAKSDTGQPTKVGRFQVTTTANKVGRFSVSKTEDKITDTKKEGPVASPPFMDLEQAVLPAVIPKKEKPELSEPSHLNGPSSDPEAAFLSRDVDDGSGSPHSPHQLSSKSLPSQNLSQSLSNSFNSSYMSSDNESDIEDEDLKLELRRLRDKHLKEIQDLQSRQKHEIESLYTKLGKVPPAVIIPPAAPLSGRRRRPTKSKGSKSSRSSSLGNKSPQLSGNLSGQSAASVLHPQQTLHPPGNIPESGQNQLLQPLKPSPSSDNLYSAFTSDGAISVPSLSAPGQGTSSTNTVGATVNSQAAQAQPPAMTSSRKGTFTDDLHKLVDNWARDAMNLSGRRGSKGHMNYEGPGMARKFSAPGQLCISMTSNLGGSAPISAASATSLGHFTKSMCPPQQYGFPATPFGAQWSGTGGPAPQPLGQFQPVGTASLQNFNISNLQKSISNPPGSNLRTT"}, "PAK4(h)": {"molecular_target": "T3, PAK4(h) (Homo sapiens, UniProt O96013)", "T3 construct": "purchased Eurofins (KinaseProfiler)", "T3 sequence (O96013 whole entry)": "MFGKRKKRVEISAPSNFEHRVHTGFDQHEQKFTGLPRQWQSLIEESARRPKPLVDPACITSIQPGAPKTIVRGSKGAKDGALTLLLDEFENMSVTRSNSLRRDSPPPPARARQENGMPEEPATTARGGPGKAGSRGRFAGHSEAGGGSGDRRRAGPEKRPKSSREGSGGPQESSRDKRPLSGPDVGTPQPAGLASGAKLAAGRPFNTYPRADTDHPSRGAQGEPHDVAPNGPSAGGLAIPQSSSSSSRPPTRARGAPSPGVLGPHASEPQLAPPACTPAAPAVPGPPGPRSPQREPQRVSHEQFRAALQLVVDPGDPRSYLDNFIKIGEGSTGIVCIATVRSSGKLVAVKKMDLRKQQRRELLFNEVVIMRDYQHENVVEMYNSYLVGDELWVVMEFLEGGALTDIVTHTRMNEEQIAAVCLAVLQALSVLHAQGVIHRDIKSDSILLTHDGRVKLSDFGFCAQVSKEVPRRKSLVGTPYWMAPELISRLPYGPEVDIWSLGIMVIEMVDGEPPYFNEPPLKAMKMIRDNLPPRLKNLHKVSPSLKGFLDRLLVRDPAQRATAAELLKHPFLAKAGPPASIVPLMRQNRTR"}, "RIPK1(h)": {"molecular_target": "T4, RIPK1(h) (Homo sapiens, UniProt Q13546)", "T4 construct": "purchased Eurofins (KinaseProfiler)", "T4 sequence (Q13546 1-671)": "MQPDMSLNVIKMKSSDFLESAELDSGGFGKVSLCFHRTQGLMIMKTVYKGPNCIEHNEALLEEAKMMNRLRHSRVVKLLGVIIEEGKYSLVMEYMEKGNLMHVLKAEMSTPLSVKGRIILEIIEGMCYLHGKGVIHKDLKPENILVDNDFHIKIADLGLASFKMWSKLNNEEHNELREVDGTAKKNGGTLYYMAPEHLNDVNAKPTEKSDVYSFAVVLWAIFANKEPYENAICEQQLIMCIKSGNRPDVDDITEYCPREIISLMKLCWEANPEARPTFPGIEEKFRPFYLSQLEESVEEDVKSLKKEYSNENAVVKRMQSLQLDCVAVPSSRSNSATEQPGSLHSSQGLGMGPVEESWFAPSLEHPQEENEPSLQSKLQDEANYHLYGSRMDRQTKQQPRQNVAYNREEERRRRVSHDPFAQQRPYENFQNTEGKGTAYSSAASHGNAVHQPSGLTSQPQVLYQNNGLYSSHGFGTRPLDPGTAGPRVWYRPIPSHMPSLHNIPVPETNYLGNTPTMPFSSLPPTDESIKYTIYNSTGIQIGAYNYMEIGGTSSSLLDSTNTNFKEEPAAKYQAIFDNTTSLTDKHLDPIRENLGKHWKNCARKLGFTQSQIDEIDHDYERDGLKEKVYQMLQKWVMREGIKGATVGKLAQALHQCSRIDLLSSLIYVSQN"}, "TAO3(h)": {"molecular_target": "T5, TAO3(h) (Homo sapiens, UniProt Q9H2K8)", "T5 construct": "purchased Eurofins (KinaseProfiler)", "T5 sequence (Q9H2K8 1-898)": "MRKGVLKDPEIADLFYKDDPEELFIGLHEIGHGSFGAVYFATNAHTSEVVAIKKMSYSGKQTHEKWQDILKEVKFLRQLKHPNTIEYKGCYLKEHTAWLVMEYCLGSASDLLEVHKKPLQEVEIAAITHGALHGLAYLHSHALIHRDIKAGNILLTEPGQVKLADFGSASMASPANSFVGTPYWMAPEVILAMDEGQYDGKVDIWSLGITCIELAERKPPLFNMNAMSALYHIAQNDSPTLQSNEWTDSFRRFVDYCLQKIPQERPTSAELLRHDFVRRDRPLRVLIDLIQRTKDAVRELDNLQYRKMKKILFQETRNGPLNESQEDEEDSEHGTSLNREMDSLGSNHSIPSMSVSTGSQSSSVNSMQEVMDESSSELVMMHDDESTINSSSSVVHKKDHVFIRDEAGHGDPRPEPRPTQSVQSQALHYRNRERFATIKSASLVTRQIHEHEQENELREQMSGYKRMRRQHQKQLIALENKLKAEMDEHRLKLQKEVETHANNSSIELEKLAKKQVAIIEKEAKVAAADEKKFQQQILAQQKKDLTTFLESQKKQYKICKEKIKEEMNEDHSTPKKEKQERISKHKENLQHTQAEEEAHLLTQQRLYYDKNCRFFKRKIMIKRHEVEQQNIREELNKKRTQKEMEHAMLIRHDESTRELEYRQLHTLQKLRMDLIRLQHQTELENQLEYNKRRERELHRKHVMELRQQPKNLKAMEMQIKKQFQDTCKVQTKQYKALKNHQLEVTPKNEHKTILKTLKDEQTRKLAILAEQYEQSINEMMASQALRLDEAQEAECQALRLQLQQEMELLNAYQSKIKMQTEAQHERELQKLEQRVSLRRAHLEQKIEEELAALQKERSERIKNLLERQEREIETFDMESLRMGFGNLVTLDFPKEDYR"}, "SIK(h)": {"molecular_target": "T6, SIK(h) (Homo sapiens, UniProt P57059)", "T6 construct": "purchased Eurofins (KinaseProfiler)", "T6 sequence (P57059 whole entry)": "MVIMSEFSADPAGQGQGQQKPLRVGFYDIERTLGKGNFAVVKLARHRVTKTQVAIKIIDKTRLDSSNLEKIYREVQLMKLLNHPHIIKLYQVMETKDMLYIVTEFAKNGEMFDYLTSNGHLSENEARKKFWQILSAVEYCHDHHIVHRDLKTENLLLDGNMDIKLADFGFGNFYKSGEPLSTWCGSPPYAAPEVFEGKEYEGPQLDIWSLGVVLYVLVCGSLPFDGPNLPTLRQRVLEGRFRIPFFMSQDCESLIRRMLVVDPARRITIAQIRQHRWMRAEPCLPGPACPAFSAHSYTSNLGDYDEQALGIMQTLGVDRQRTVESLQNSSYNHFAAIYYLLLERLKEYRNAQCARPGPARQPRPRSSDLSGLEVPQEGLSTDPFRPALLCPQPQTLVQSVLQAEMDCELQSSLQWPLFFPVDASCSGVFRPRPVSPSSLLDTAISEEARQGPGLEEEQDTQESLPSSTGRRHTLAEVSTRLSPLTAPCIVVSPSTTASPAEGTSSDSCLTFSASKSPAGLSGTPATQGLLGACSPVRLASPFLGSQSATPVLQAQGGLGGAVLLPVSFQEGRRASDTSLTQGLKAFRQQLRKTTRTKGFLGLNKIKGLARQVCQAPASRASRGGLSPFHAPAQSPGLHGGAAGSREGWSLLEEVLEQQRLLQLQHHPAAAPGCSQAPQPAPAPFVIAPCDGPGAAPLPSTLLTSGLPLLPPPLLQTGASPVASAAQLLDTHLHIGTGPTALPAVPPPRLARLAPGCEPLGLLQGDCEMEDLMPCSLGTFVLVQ"}, "Rsk3(h)": {"molecular_target": "T7, Rsk3(h) (Homo sapiens, UniProt Q15349)", "T7 construct": "purchased Eurofins (KinaseProfiler)", "T7 sequence (Q15349 whole entry)": "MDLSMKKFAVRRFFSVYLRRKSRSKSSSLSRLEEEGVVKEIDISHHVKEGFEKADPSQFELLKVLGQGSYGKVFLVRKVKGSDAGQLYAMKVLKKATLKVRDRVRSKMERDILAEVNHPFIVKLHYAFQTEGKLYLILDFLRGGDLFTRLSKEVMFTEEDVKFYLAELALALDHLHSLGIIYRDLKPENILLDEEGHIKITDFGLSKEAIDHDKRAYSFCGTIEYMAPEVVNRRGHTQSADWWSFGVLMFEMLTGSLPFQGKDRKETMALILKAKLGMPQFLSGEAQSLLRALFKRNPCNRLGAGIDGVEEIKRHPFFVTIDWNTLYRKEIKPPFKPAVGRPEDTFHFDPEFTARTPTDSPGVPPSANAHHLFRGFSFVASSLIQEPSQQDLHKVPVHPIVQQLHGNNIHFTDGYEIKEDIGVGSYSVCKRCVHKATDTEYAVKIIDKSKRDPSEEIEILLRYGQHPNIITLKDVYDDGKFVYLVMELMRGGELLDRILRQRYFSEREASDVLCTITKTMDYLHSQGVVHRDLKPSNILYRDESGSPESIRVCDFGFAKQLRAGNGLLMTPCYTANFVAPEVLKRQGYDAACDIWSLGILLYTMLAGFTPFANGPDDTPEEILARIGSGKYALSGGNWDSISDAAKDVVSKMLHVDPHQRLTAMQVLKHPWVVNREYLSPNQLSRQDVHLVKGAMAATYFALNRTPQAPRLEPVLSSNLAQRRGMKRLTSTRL"}, "LRRK2(h)": {"molecular_target": "T8, LRRK2(h) (Homo sapiens, UniProt Q5S007)", "T8 construct": "purchased Eurofins (KinaseProfiler)"}, "SIK3(h)": {"molecular_target": "T9, SIK3(h) (Homo sapiens, UniProt Q9Y2K2)", "T9 construct": "purchased Eurofins (KinaseProfiler)"}}}
{"smiles": "COc1cc(OC)c(Cl)c(-c2ccc3c(NC(=O)c4ccc(N5CCNC(C)(C)C5)cc4)n[nH]c3n2)c1Cl", "note": "[3D185]", "values": [{"measurement": "inhibition at 0.01 µM", "setting": "Cdc7/cyclinB1(h); 10 nM", "value": 5, "unit": "%"}, {"measurement": "inhibition at 0.1 µM", "setting": "Cdc7/cyclinB1(h); 100 nM", "value": -5, "unit": "%"}, {"measurement": "inhibition at 1 µM", "setting": "Cdc7/cyclinB1(h); 1000 nM", "value": 8, "unit": "%"}, {"measurement": "inhibition at 0.01 µM", "setting": "WNK1(h); 10 nM", "value": 3, "unit": "%"}, {"measurement": "inhibition at 0.1 µM", "setting": "WNK1(h); 100 nM", "value": 2, "unit": "%"}, {"measurement": "inhibition at 1 µM", "setting": "WNK1(h); 1000 nM", "value": 16, "unit": "%"}, {"measurement": "inhibition at 0.01 µM", "setting": "PAK4(h); 10 nM", "value": -8, "unit": "%"}, {"measurement": "inhibition at 0.1 µM", "setting": "PAK4(h); 100 nM", "value": 0, "unit": "%"}, {"measurement": "inhibition at 1 µM", "setting": "PAK4(h); 1000 nM", "value": -2, "unit": "%"}, {"measurement": "inhibition at 0.01 µM", "setting": "RIPK1(h); 10 nM", "value": 4, "unit": "%"}, {"measurement": "inhibition at 0.1 µM", "setting": "RIPK1(h); 100 nM", "value": 86, "unit": "%"}, {"measurement": "inhibition at 1 µM", "setting": "RIPK1(h); 1000 nM", "value": 99, "unit": "%"}, {"measurement": "inhibition at 0.01 µM", "setting": "TAO3(h); 10 nM", "value": -1, "unit": "%"}, {"measurement": "inhibition at 0.1 µM", "setting": "TAO3(h); 100 nM", "value": 7, "unit": "%"}, {"measurement": "inhibition at 1 µM", "setting": "TAO3(h); 1000 nM", "value": 36, "unit": "%"}, {"measurement": "inhibition at 0.01 µM", "setting": "SIK(h); 10 nM", "value": 4, "unit": "%"}, {"measurement": "inhibition at 0.1 µM", "setting": "SIK(h); 100 nM", "value": -17, "unit": "%"}, {"measurement": "inhibition at 1 µM", "setting": "SIK(h); 1000 nM", "value": -5, "unit": "%"}, {"measurement": "inhibition at 0.01 µM", "setting": "Rsk3(h); 10 nM", "value": -17, "unit": "%"}, {"measurement": "inhibition at 0.1 µM", "setting": "Rsk3(h); 100 nM", "value": -19, "unit": "%"}, {"measurement": "inhibition at 1 µM", "setting": "Rsk3(h); 1000 nM", "value": -15, "unit": "%"}, {"measurement": "inhibition at 0.01 µM", "setting": "LRRK2(h); 10 nM", "value": -10, "unit": "%"}, {"measurement": "inhibition at 0.1 µM", "setting": "LRRK2(h); 100 nM", "value": -3, "unit": "%"}, {"measurement": "inhibition at 1 µM", "setting": "LRRK2(h); 1000 nM", "value": 21, "unit": "%"}, {"measurement": "inhibition at 0.01 µM", "setting": "SIK3(h); 10 nM", "value": -4, "unit": "%"}, {"measurement": "inhibition at 0.1 µM", "setting": "SIK3(h); 100 nM", "value": -1, "unit": "%"}, {"measurement": "inhibition at 1 µM", "setting": "SIK3(h); 1000 nM", "value": -2, "unit": "%"}]}
